# Laboratory results reported in paper PMC2584044, “Key biosynthetic gene subfamily recruited for pheromone production prior to the extensive radiation of Lepidoptera” (BMC Evolutionary Biology, 2008).
# Target: T1, Lca-QPAQ (Lca-Z9-QPAQ) (Lampronia capitella, UniProt B6CBS2)
# T1 construct: full-length ORF, 353 residues, YEpOLEX in S. cerevisiae ole1
# T1 sequence (B6CBS2 1-352): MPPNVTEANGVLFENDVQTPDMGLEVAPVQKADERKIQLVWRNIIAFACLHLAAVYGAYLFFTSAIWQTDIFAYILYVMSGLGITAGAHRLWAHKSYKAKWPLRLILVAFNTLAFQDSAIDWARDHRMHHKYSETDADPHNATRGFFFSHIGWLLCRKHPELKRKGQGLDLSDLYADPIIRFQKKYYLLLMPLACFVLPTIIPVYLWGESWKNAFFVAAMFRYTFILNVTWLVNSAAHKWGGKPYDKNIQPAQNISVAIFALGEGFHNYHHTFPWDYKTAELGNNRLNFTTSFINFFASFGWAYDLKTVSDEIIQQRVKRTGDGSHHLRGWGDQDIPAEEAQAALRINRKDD
# Assay: product GC-MS with DMDS adducts, yeast ole1 complementation
# Format: cell-based
# Conditions: endogenous yeast acyl (as acyl-CoA); 30 °C; product (Z)-9-hexadecenoic acid
structure (smiles),measurement,value
CCCCCCCCCCCCCCCC(=O)O [palmitic acid],"product GC-MS with DMDS adducts, yeast ole1 complementation",Lca-QPAQ and Hass-KPSE are encoding Z9-desaturases displaying a substrate preference for palmitic acid
